According to US20250154173A1 (Merck Sharp & Dohme LLC, priority 2023, published 2025):
pEC50: −log10 of the molar value.

Molecular target: T1, GST-RIPK1 (recombinant GST-RIPK1 kinase domain (residues 1-327)) (Homo sapiens, UniProt Q13546)
T1 construct: recombinant GST-RIPK1 kinase domain (residues 1-327) enzyme produced from baculovirus-transfected Sf21 cells; host or cells: baculovirus-transfected Sf21 insect cells
T1 sequence (Q13546 1-327): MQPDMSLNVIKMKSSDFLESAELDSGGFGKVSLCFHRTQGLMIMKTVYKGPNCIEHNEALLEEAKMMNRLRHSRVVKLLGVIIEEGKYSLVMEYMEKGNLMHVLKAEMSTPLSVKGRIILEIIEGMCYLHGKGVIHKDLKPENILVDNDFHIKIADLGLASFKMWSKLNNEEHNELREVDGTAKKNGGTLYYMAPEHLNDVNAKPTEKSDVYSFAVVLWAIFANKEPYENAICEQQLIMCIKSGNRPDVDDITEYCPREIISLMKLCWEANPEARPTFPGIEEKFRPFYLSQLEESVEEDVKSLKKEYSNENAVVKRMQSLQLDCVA
Assay: RIPK1-ADP-Glo Enzymatic Assay
Type: biochemical
Conditions: ten-point titration, top compound concentration of 100000 nM; 25 nM GST-RIPK1, 300 μM ATP, 3 μM dephosphorylated-MBP; 30 min pre-incubation, 150 min reaction
In short: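 ADP-Glo luminescence quantifies ADP formed over 150 minutes by 25 nM Sf21-produced GST-RIPK1 (1-327) using 300 μM ATP and 3 μM dephosphorylated MBP, following 30-minute compound preincubation at 1% DMSO. Ten-point 1:3 series from 100000 nM gave EC50 via four-parameter sigmoidal regression.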

O=C1N2[C@@H](CC[C@H]2c2ccc(F)cc2)O[C@]12C[C@H](Oc1nccc3nccn13)C2 [Example 9.34, (1r,3R,5′S,7a′R)-5′-(4-fluorophenyl)-3-[(imidazo[1,2-c]pyrimidin-5-yl)oxy]tetrahydro-3′H-spiro[cyclobutane-1,2′-pyrrolo[2,1-b][1,3]oxazol]-3′-one]
pEC50: 7.72

O=C1N2C(CC[C@H]2c2cnccn2)OC12CC(OCc1nnc(Cc3ccccc3)s1)C2 (stereo partly drawn) [Example 18.12, (5′S)-3-[(5-benzyl-1,3,4-thiadiazol-2-yl)methoxy]-5′-(pyrazin-2-yl)tetrahydro-3′H-spiro[cyclobutane-1,2′-pyrrolo[2,1-b][1,3]oxazol]-3′-one]
pEC50: 6.74

O=C1N2[C@@H](CC[C@H]2c2cnccn2)O[C@]12C[C@@H](Oc1cccnc1)C2 [Example 19.1, (5′S,7a′R)-5′-(pyrazin-2-yl)-3-(pyridin-3-yloxy)tetrahydro-3′H-spiro[cyclobutane-1,2′-pyrrolo[2,1-b]oxazol]-3′-one]
pEC50: 7.51

COc1cncc(OC2CC3(C2)O[C@@H]2CC[C@@H](c4ccccc4)N2C3=O)c1 (stereo partly drawn) [Example 8.6, (5′S,7a′R)-3-[(5-methoxypyridin-3-yl)oxy]-5′-phenyltetrahydro-3′H-spiro[cyclobutane-1,2′-pyrrolo[2,1-b][1,3]oxazol]-3′-one]
pEC50: 7.19

COc1cc(COC2CC3(C2)OC2CC[C@@H](c4cnccn4)N2C3=O)cc2nccn12 (stereo partly drawn) [Example 18.34, (5′S)-3-[(5-methoxyimidazo[1,2-a]pyridin-7-yl)methoxy]-5′-(pyrazin-2-yl)tetrahydro-3′H-spiro[cyclobutane-1,2′-pyrrolo[2,1-b][1,3]oxazol]-3′-one]
pEC50: 6.64

CSc1nnc2ccc(COC3CC4(C3)OC3CC[C@@H](c5cnccn5)N3C4=O)cn12 (stereo partly drawn) [Example 18.16, (5′S)-3-{[3-(methylsulfanyl)[1,2,4]triazolo[4,3-a]pyridin-6-yl]methoxy}-5′-(pyrazin-2-yl)tetrahydro-3′H-spiro[cyclobutane-1,2′-pyrrolo[2,1-b][1,3]oxazol]-3′-one]
pEC50: 6.46

CC1(Oc2cc(C#N)ncn2)CC2(C1)O[C@@H]1CC[C@@H](c3cc(F)cc(F)c3)N1C2=O (stereo partly drawn) [Example 5.1, 6-(((5′S,7a′R)-5′-(3,5-difluorophenyl)-3-methyl-3′-oxotetrahydro-3′H-spiro[cyclobutane-1,2′-pyrrolo[2,1-b]oxazol]-3-yl)oxy)pyrimidine-4-carbonitrile]
pEC50: 7.24

O=C1N2C(CC[C@H]2c2cnccn2)OC12CC(OCc1ccc3c(c1)CCO3)C2 (stereo partly drawn) [Example 18.92, (5′S)-3-[(2,3-dihydro-1-benzofuran-5-yl)methoxy]-5′-(pyrazin-2-yl)tetrahydro-3′H-spiro[cyclobutane-1,2′-pyrrolo[2,1-b][1,3]oxazol]-3′-one]
pEC50: 6.61

O=C(O[C@H]1C[C@@]2(C1)O[C@@H]1CC[C@@H](c3cc(F)cc(F)c3)N1C2=O)c1ccccn1 [Example 13, (1r,3R,5′S,7a′R)-5′-(3,5-difluorophenyl)-3′-oxotetrahydro-3′H-spiro[cyclobutane-1,2′-pyrrolo[2,1-b]oxazol]-3-yl picolinate]
pEC50: 6.78

O=C1N2[C@@H](CC[C@H]2c2cc(F)cc(F)c2)O[C@]12C[C@H](Oc1nccc3nccn13)C2 [Example 9.21, (1r,3R,5′S,7a′R)-5′-(3,5-difluorophenyl)-3-[(imidazo[1,2-c]pyrimidin-5-yl)oxy]tetrahydro-3′H-spiro[cyclobutane-1,2′-pyrrolo[2,1-b][1,3]oxazol]-3′-one]
pEC50: 7.85

Cn1nccc1-c1cccc(OC2CC3(C2)O[C@@H]2CC[C@@H](c4cnccn4)N2C3=O)c1 (stereo partly drawn) [Example 19.14, (5′S,7a′R)-3-[3-(1-methyl-1H-pyrazol-5-yl)phenoxy]-5′-(pyrazin-2-yl)tetrahydro-3′H-spiro[cyclobutane-1,2′-pyrrolo[2,1-b][1,3]oxazol]-3′-one]
pEC50: 7.80

O=C1N2[C@@H](CC[C@H]2c2ccccc2)OC12CC(Oc1cccc3cnoc13)C2 (stereo partly drawn) [Example 8.19]
pEC50: 6.60

COc1ccc(COC2CC3(C2)OC2CC[C@@H](c4cnccn4)N2C3=O)cc1CC#N (stereo partly drawn) [Example 18.38, [2-methoxy-5-({[(5′S)-3′-oxo-5′-(pyrazin-2-yl)tetrahydro-3′H-spiro[cyclobutane-1,2′-pyrrolo[2,1-b][1,3]oxazol]-3-yl]oxy}methyl)phenyl]acetonitrile]
pEC50: 7.92

O=C1N2[C@@H](CC[C@H]2c2cc(F)cc(F)c2)O[C@]12C[C@H](Oc1cccc3ncnn13)C2 [Example 9.26, (1r,3R,5′S,7a′R)-5′-(3,5-difluorophenyl)-3-[([1,2,4]triazolo[1,5-a]pyridin-5-yl)oxy]tetrahydro-3′H-spiro[cyclobutane-1,2′-pyrrolo[2,1-b][1,3]oxazol]-3′-one]
pEC50: 6.56

COc1ccc2cc(COC3CC4(C3)OC3CC[C@@H](c5cnccn5)N3C4=O)ncc2n1 (stereo partly drawn) [Example 18.32, (5′S)-3-[(2-methoxy-1,7-naphthyridin-6-yl)methoxy]-5′-(pyrazin-2-yl)tetrahydro-3′H-spiro[cyclobutane-1,2′-pyrrolo[2,1-b][1,3]oxazol]-3′-one]
pEC50: 6.84

O=C1N2[C@@H](CC[C@H]2c2ccccc2)O[C@]12C[C@H](Oc1ncnn3cccc13)C2 [Example 9.24, (1r,3R,5′S,7a′R)-5′-phenyl-3-[(pyrrolo[2,1-f][1,2,4]triazin-4-yl)oxy]tetrahydro-3′H-spiro[cyclobutane-1,2′-pyrrolo[2,1-b][1,3]oxazol]-3′-one]
pEC50: 7.96

O=C1N2[C@@H](CC[C@H]2c2cnccn2)OC12CC(OCc1cnn(C34CC(C3)C4)c1)C2 (stereo partly drawn) [Example 18.6, (5′S, 7a′R)-3-{[1-(bicyclo[1.1.1]pentan-1-yl)-1H-pyrazol-4-yl]methoxy}-5′-(pyrazin-2-yl)tetrahydro-3′H-spiro[cyclobutane-1,2′-pyrrolo[2,1-b][1,3]oxazol]-3′-one]
pEC50: 6.44

N#Cc1cc(O[C@H]2C[C@]3(C2)O[C@@H]2CC[C@@H](c4cc(F)cc(F)c4)N2C3=O)ncn1 [Example 9.12, 6-(((1s,3S,5′S,7a′R)-5′-(3,5-difluorophenyl)-3′-oxotetrahydro-3′H-spiro[cyclobutane-1,2′-pyrrolo[2,1-b]oxazol]-3-yl)oxy)pyrimidine-4-carbonitrile]
pEC50: 6.35

O=C1N2C(CC[C@H]2c2cnccn2)OC12CC(OCc1ccc3nccn3c1)C2 (stereo partly drawn) [Example 18.19, (5′S)-3-[(imidazo[1,2-a]pyridin-6-yl)methoxy]-5′-(pyrazin-2-yl)tetrahydro-3′H-spiro[cyclobutane-1,2′-pyrrolo[2,1-b][1,3]oxazol]-3′-one]
pEC50: 6.96

N#Cc1cc(OC2CC3(C2)O[C@@H]2CC[C@@H](c4cccc(F)c4F)N2C3=O)ncn1 (single isomer, unassigned) [Example 9.40, 6-{[(5′S,7a′R)-5′-(2,3-difluorophenyl)-3′-oxotetrahydro-3′H-spiro[cyclobutane-1,2′-pyrrolo[2,1-b][1,3]oxazol]-3-yl]oxy}pyrimidine-4-carbonitrile]
pEC50: 6.32

COc1cc(COC2CC3(C2)OC2CC[C@@H](c4cnccn4)N2C3=O)cc2nccn12 (stereo partly drawn) [Example 18.83, (5′S)-3-[(5-methoxyimidazo[1,2-a]pyridin-7-yl)methoxy]-5′-(pyrazin-2-yl)tetrahydro-3′H-spiro[cyclobutane-1,2′-pyrrolo[2,1-b][1,3]oxazol]-3′-one]
pEC50: 6.85
